Measurements as given in ChEMBL document CHEMBL1158707, “Botryane metabolites from the fungus Geniculosporium sp. isolated from the marine red alga Polysiphonia” (2005).

Tests used:
Assay type in all cases: functional
Priestia megaterium [1] = assay: Antimicrobial activity against Bacillus megaterium 5 mg/ml
Microbotryum violaceum [2] = assay: Antimicrobial activity against Microbotryum violaceum 5 mg/ml
[Chlorella] fusca [3] = Antimicrobial activity against Chlorella fusca at 5 mg/ml; settings: Scenedesmus fuscus; read-out: IZ
Priestia megaterium [4] = assay: Antimicrobial activity against Bacillus megaterium 1mg/ml
Microbotryum violaceum [5] = assay: Antimicrobial activity against Microbotryum violaceum 1 mg/ml
[Chlorella] fusca [6] = Antimicrobial activity against Chlorella fusca at 1 mg/ml; settings: Scenedesmus fuscus; read-out: IZ
[Chlorella] fusca [7] = Antimicrobial activity against Chlorella fusca at 2 mg/ml; settings: Scenedesmus fuscus; read-out: IZ
[Chlorella] fusca [8] = Antimicrobial activity against Chlorella fusca at 8 mg/ml; settings: Scenedesmus fuscus; read-out: IZ

SMILES	inhibition zone (IZ) (Priestia megaterium [1])	inhibition zone (IZ) (Microbotryum violaceum [2])	zone of inhibition at 5000 µg/mL ([Chlorella] fusca [3])	inhibition zone (IZ) (Priestia megaterium [4])	inhibition zone (IZ) (Microbotryum violaceum [5])	zone of inhibition at 1000 µg/mL ([Chlorella] fusca [6])	zone of inhibition at 2000 µg/mL ([Chlorella] fusca [7])	zone of inhibition at 8000 µg/mL ([Chlorella] fusca [8])
Cc1ccc2c3c1[C@@H](O)OC[C@@]3(C)[C@H](O)C2(C)C	6 mm	6 mm	12 mm	0 mm	0 mm	0 mm		
Cc1ccc2c3c1COC[C@@]3(C)[C@H](O)C2(C)C							5 mm	5 mm
CO[C@H]1OC[C@@]2(C)[C@H](OC(C)=O)C(C)(C)[C@@H]3[C@@H](OC(C)=O)C[C@@H](C)[C@H]1[C@@]32O	0 mm	0 mm	0 mm	0 mm	0 mm	0 mm		
CO[C@H]1OC[C@]2(C)c3c(ccc(C)c31)C(C)(C)[C@H]2O	6 mm	8 mm	6 mm	0 mm	0 mm	0 mm		
CCO[C@H]1OC[C@]2(C)c3c(ccc(C)c31)C(C)(C)[C@H]2O							5 mm	6 mm
C[C@@H]1CC=C2[C@@H]3[C@H]1CC(O)[C@@]3(C=O)CC2(C)C (some centres not stated)	0 mm	0 mm	10 mm	0 mm	0 mm	0 mm		
C[C@@H]1C[C@H](O)[C@H]2C(C)(C)C[C@]3(C)CO[C@H](O)[C@@H]1[C@@]23O	0 mm	0 mm	0 mm	0 mm	0 mm	0 mm		
Cc1ccc2c3c1C(=O)OC[C@@]3(C)[C@H](O)C2(C)C	6 mm	0 mm	8 mm	0 mm	0 mm	0 mm		
C[C@@H]1CCC2=C3C1=COC[C@@]3(C)[C@H](O)C2(C)C	0 mm	5 mm	6 mm	0 mm	0 mm	0 mm		
C[C@@H]1C[C@H](O)C2=C3C1=COC[C@@]3(C)[C@H](O)C2(C)C	0 mm	5 mm	7 mm	0 mm	0 mm	0 mm		
CO[C@H]1OC[C@@]2(C)[C@H](O)C(C)(C)[C@@H]3[C@@H](O)C[C@@H](C)[C@H]1[C@@]32O	0 mm	0 mm	0 mm	0 mm	0 mm	0 mm		
C[C@@H]1C[C@H](O)[C@@H]2C(=C1C=O)[C@@](C)(CO)[C@H](O)C2(C)C							0 mm	6 mm
C[C@@H]1C[C@H](O)[C@@H]2C3=C1[C@@H](O)OC[C@@]3(C)[C@H](O)C2(C)C							0 mm	7 mm
